# From patent US11230525B2, “Organic sulfur compound, method for preparing same, and pharmaceutical composition for preventing or treating cancer or an inflammatory disease, containing same as active ingredient” (SOOKMYUNG WOMENS UNIVERSITY INDUSTRY-ACADEMIC COOPERATION …, priority 2016, dated 2022)
# Experiments:
# HDAC 8 = target: T1, HDAC 8 (Homo sapiens, UniProt Q9BY41); experiment: HDAC enzyme fluorescence assay, HDAC 8; type: biochemical; design: Inhibitory activity (%) HDAC 8: concentration or dose not given beside the values; conditions: for Inhibitory activity (%) HDAC 8: (HDAC inhibitory activity of example compound/HDAC inhibitory activity of SAHA) × 100
# T1 sequence (Q9BY41 1-377): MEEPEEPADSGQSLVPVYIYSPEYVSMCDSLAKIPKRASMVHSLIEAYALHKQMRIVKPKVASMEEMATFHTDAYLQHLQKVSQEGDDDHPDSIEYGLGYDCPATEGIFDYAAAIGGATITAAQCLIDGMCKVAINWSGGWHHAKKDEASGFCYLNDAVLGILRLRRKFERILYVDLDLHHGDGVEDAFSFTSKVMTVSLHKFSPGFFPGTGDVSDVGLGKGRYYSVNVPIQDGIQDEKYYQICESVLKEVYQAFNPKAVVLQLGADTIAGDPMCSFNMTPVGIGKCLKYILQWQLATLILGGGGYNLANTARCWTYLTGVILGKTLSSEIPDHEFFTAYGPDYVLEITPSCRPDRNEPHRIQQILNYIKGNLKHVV
# Procedure: Particularly, HDAC enzyme analysis was performed based on a uniform fluorescence emission assay. First, the compounds of examples of the present invention or comparative example 1 were diluted at different concentrations, which were treated to the analysis buffer containing 25 mM HEPES (pH 8.0), 137 mM NaCl, 1 mM MgCl2 and 2.7 mM KCL, followed by culture of the recombinant HDAC enzyme. 10 minutes later, Boc-Lys(acetyl)-AMC, the fluorescence inducing substrate, was added thereto, followed by further culture at 37° C. At this time, the concentration of the fluorescence inducing substrate and the culture time were adjusted according to the isotypes of the HDAC enzyme. The reaction was terminated by treating trypsin at room temperature for 20 minutes. The fluorescence intensity was measured using a fluorescence analyzer at an excitation wavelength of 380 nm and an emission wavelength of 460 nm, respectively. The inhibition rate was calculated from the measured fluorescence intensity of each well with comparing to that of the control well. IC50 of the compound was calculated by analyzing the dose-reaction inhibition curve.
# The HDAC 8 inhibitory activity was presented as percentage of relative activity by the inhibitory activity of SAHA (Vorinostat) used as a reference compound.
# [1] = tested on: renal cancer cell line (ACHN); experiment: Cancer proliferation inhibitory activity (SRB, GI50), ACHN; type: cell-based; conditions: Homo sapiens, 48 hours
# Description: (§1) Particularly, the cancer proliferation inhibitory activity of the compounds of comparative examples (Ajoene and the compounds isosteric to Ajoene wherein R1 is allyl or benzyl) and the compounds of examples of the present invention (the compounds not isosteric to Ajoene wherein R^1 is phenyl) was investigated in human cancer cell lines (renal cancer cell line (ACHN), breast cancer cell line (MDA-MB-231), colorectal cancer cell line (HCT-15), prostate cancer cell line (PC-3), gastric cancer cell line (NUGC-3) and lung cancer cell line (NCl-H23)).
# (§2) At this time, the cancer cell lines (renal cancer cell line (ACHN), breast cancer cell line (MDA-MB-231), colorectal cancer cell line (HCT-15), prostate cancer cell line (PC-3), gastric cancer cell line (NUGC-3) and lung cancer cell line (NCl-H23)) above were purchased from American Type Culture Collection (Manassas, Va., USA). Cells were cultured in RPMI 1640 supplemented with 10% fetal bovine serum, which were maintained 37° C. under 5% CO2 wet atmosphere. The cells were distributed in a 96-well plate, which was not treated (treated only with 0.1% DMSO) or treated with the compounds of examples of the present (0.1 μM to 10 μM). 48 hours later, the cells were fixed in 50% trichloroacetic acid, followed by staining with 1% acetic acid containing 0.4% sulphorodamine B dissolved therein. The non-conjugated dye was removed by washing with 1% acetic acid, and the protein conjugated dye was extracted with 10 mM Tris base (pH 10.5). Then, OD540 was measured with VersaMax microplate reader (Molecular devices, Sunnyvale, Calif., USA). GI50 was calculated by using GraphPad Prism software (GraphPad Software, Inc., San Diego, Calif., USA).
# (§3) Based on the results obtained in experimental example 1-1 above, the derivatives wherein R^1 is phenyl were additionally synthesized. The cancer proliferation inhibitory activity of the derivatives was evaluated by the same manner as described in experimental example 1-1.
# [2] = tested on: gastric cancer cell line (NUGC-3); experiment: Cancer proliferation inhibitory activity (SRB, GI50), NUGC-3; type: cell-based; conditions: Homo sapiens, 48 hours
# Description: as §1, §2, §3
# [3] = tested on: lung cancer cell line (NCl-H23); experiment: Cancer proliferation inhibitory activity (SRB, GI50), NCI-H23; type: cell-based; conditions: Homo sapiens, 48 hours
# Description: as §1, §2, §3
# [4] = tested on: prostate cancer cell line (PC-3); experiment: Cancer proliferation inhibitory activity (SRB, GI50), PC-3; type: cell-based; conditions: Homo sapiens, 48 hours
# Description: as §1, §2, §3
# [5] = tested on: colorectal cancer cell line (HCT-15); experiment: Cancer proliferation inhibitory activity (SRB, GI50), HCT-15; type: cell-based; conditions: Homo sapiens, 48 hours
# Description: as §1, §2, §3
# [6] = tested on: breast cancer cell line (MDA-MB-231); experiment: Cancer proliferation inhibitory activity (SRB, GI50), MDA-MB-231; type: cell-based; conditions: Homo sapiens, 48 hours
# Description: as §1, §2, §3
SMILES,Inhibitory activity (%) HDAC 8 (HDAC 8) [%],GI50 [1] [µM],GI50 [2] [µM],GI50 [3] [µM],GI50 [4] [µM],GI50 [5] [µM],GI50 [6] [µM],"IC50 (HDAC 8; recombinant HDAC enzyme, Boc-Lys(acetyl)-AMC, read-out: IC50 HDAC 8) [µM]"
"C=CCSS/C=C\C[S+]([O-])c1ccc(OC)cc1 (stereo not shown) [Example 28, (Z)-1-allyl-2-(3-(4-methoxyphenylsulfinyl)prop-1-enyl)disulfane]",73.5,5.06,3.77,4.24,4.47,3.94,7.28,
"[O-][S+](C/C=C\SSCc1ccc(Cl)c(Cl)c1)c1ccccc1 (stereo not shown) [Example 14, (Z)-1-(3,4-dichlorobenzyl)-2-(3-(phenylsulfinyl)prop-1-enyl)disulfane]",146.4,7.68,8.51,7.35,4.55,> 10,4.78,
"C=CCSS/C=C/C[S+]([O-])c1cccc(OC)c1 (stereo not shown) [Example 15, (E)-1-allyl-2-(3-(3-methoxyphenylsulfinyl)prop-1-enyl)disulfane]",84.6,2.56,2.95,3.42,3.02,2.58,4.51,
"COc1cccc([S+]([O-])C/C=C\SSCc2ccc(F)cc2)c1 (stereo not shown) [Example 22, (Z)-1-(4-fluorobenzyl)-2-(3-(3-methoxyphenylsulfinyl)prop-1-enyl)disulfane]",122.9,3.85,3.67,2.71,3.04,3.01,4.41,
"[O-][S+](C/C=C\SSCc1ccc(Cl)cc1)c1ccccc1 (stereo not shown) [Example 12, (Z)-1-(4-chlorobenzyl)-2-(3-(phenylsulfinyl)prop-1-enyl)disulfane]",105.4,2.95,3.24,3.51,4.99,5.48,2.26,
"COc1cccc([S+]([O-])C/C=C/SSCc2ccccc2)c1 (stereo not shown) [Example 19, (E)-1-benzyl-2-(3-(3-methoxyphenylsulfinyl)prop-1-enyl)disulfane]",88.1,2.5,2.34,2.12,1.44,2.08,1.77,

# More lines, now with the values ahead:
Inhibitory activity (%) HDAC 8 (HDAC 8) [%],GI50 [1] [µM],GI50 [2] [µM],GI50 [3] [µM],GI50 [4] [µM],GI50 [5] [µM],GI50 [6] [µM],"IC50 (HDAC 8; recombinant HDAC enzyme, Boc-Lys(acetyl)-AMC, read-out: IC50 HDAC 8) [µM]",SMILES
52.9,3.23,2.36,3.58,3.02,2.43,2.14,0.29,"CCCSS/C=C\C[S+]([O-])c1ccc(OC)cc1 (stereo not shown) [Example 30, (Z)-1-(3-(4-methoxyphenylsulfinyl)prop-1-enyl)-2-propyldisulfane]"
55.5,5.19,4.61,3.33,4.36,7.18,2.07,,"COc1ccc([S+]([O-])C/C=C\SSCc2ccc(Cl)c(Cl)c2)cc1 (stereo not shown) [Example 38, (Z)-1-(3,4-dichlorobenzyl)-2-(3-(4-methoxyphenylsulfinyl)prop-1-enyl)disulfane]"
106.1,3.75,5.48,3.09,5.17,3.32,4.19,,"COc1ccc([S+]([O-])C/C=C/SSCc2ccc(Cl)c(Cl)c2)cc1 (stereo not shown) [Example 37, (E)-1-(3,4-dichlorobenzyl)-2-(3-(4-methoxyphenylsulfinyl)prop-1-enyl)disulfane]"
